The values that follow come from paper PMC9378659, “Design and synthesis of new N-thioacylated ciprofloxacin derivatives as urease inhibitors with potential antibacterial activity” (Scientific Reports, 2022).

One may read the IC50 as the concentration that inhibits the measured activity by half. As usually defined, the MIC is the lowest concentration that inhibits growth of the organism.

In brackets after ≈: the same amount, converted by molar mass. Where two headings read alike, the source gives them in different places.

Experiment [1] deals with T1, jack bean urease (JBU; EC 3.5.1.5) (Canavalia ensiformis, UniProt P07374).
T1 construct: purchased Sigma-Aldrich
Kind of experiment: biochemical. The conditions noted are these: JB urease, mean ± SEM, at least three experiments. As for the experimental part:
All chemicals and jack bean urease (JBU; EC 3.5.1.5) were purchased from Sigma-Aldrich. The urease inhibitory activity of N-thioacylated ciprofloxacin derivatives 3a–n was determined by Berthelot colorimetric method. The ammonia (NH3) produced by the urease enzyme along with indicator solutions including hypochlorite (OCl^−) and phenol make a blue-colored indophenol complex and the absorbance was measured at 625 nm by a Synergy H1 Hybrid multimode microplate reader (BioTek, Winooski, VT, USA).
Assay completed in two steps, at the first step the enzyme cocktail for each compound consisted of 50 µl urease enzyme (3 mg/ml in phosphate buffer, pH 7.4), 100 µl of test compound at different concentrations (0–10 mg/ml, in phosphate buffer, pH 7.4) and 850 µl urea solution (30 mM, in phosphate buffer, pH 7.4). This mixture was incubated at 37 °C for 30 min.
For the second step, each 100 µl of the above mixture was added to 500 µl of indicator solutions A (0.5 g phenol and 25 mg sodium nitroprusside in 500 ml distilled water) and 500 µl of B (2.5 g sodium hydroxide and 4.2 ml sodium hypochlorite (5%) in 500 ml distilled water) and further incubated at 37 °C for 30 min. The absorbance of blue-colored indophenol of each cell is related to the percentage of enzyme inhibition using the following equation: I%=1-T/C×100.
In this equation, I (%) is assigned to the percent of enzyme inhibition. (T) is assigned to the absorbance of our test compounds and C is assigned to the negative control absorbance which is the absorbance of our cocktail without any inhibitor compound. Thiourea and hydroxyurea were used as the positive controls. The IC50 values of test compounds were calculated using GraphPad PRISM 8.0 software (GraphPad, San Diego, CA, USA).

Experiment [2] has as its system Escherichia coli ATCC 8739. The experiment is described as follows: Antibacterial activity, agar dilution MIC. The format is cell-based. The following applies: ATCC8739. The procedure: (§1) Antibacterial activity of the synthesized compounds 3a–n were determined according to the agar dilution methods for Gram-positive bacteria strains (Staphylococcus aureus ATCC 6538 and Staphylococcus epidermidis ATCC 12228) and Gram-negative bacteria strains (Escherichia coli ATCC 8739 and Pseudomonas aeruginosa ATCC 9027).
(§2) Two Gram-positive bacteria strains (Staphylococcus aureus ATCC 6538 and Staphylococcus epidermidis ATCC 12228) and two Gram-negative bacteria strains (Escherichia coli ATCC 8739 and Pseudomonas aeruginosa ATCC 9027) were used for evaluation of the synthesized N-thioacylated ciprofloxacin derivatives 3a–n. All the strains were obtained from Iranian Microbial Collection (Pasteur Institute of Iran, Tehran, Iran). The antibacterial activity of the synthesized compounds was determined according to the agar dilution methods of the National Committee for Clinical Laboratory Standards[43].
(§3) Briefly, a series of twofold dilutions of test compounds 3a–n and ciprofloxacin, the standard antibiotic, were dissolved in 1 ml of DMSO. Each concentration was added to molten test agars that have been allowed to equilibrate in a water bath to 55 °C, to attain the concentrations ranging from 100 to 0.003 µg/ml. To compare the MIC values; the standard antibiotic, ciprofloxacin was also diluted in the same manner.
(§4) To prepare the inoculums suspensions, the bacteria were cultured on Muller-Hinton agar 12–16 h before the test. On the day of the experiment, a single colony of each bacteria was suspended Muller–Hinton broth to reach the turbidity of 0.5 McFarland standard (0.08–0.1 absorbance at 600 nm), which is approximately equivalent to 1.5 × 10^8 CFU/ml. The suspensions were then diluted at 1:10 in sterile saline to obtain a concentration of 1.5 × 10^7 CFU/ml. The plates were dot inoculated with 2 ul of each bacterial suspension and incubated at 37 °C overnight. The MIC was also defined as the lowest concentration of test compounds that completely prevents the growth of bacteria on agar plate following overnight incubation.
In general terms: In agar dilution, organisms are placed on agar that contains the substance at set levels.

In experiment [3] the test system is Pseudomonas aeruginosa ATCC 9027. The experiment is described as follows: Antibacterial activity, agar dilution MIC. The format is cell-based. The following applies: ATCC9027, read-out: MIC P. aeruginosa. The procedure: as §1, §2, §3, §4
The test system of experiment [4] is Staphylococcus aureus ATCC 6538. The experiment is described as follows: Antibacterial activity, agar dilution MIC. The format is cell-based. The following applies: ATCC6538, read-out: MIC S. aureus. The procedure: as §1, §2, §3, §4
In experiment [5] the test system is Staphylococcus epidermidis ATCC 12228. The experiment is described as follows: Antibacterial activity, agar dilution MIC. The format is cell-based. The conditions noted are these: ATCC12228, read-out: MIC S. epidermidis. The procedure: as §1, §2, §3, §4
Another experiment relates to C. neoformans (H99). The experiment is described as follows: Anti-ureolytic assay, colorimetric microdilution in urea broth. The format is cell-based. The conditions noted are these: Cryptococcus neoformans, urea broth pH 6. The procedure: (§5) The colorimetric microdilution technique using urea broth media (Merck, supplemented with glucose; pH 6 for C. neoformans) was used to determine the ureolytic activity of C. neoformans (H99), and clinical isolate of P. vulgaris treated with 3n according to previously reported procedures[18],[37].
A general note: Dilution methods test growth across graded concentrations, often in twofold steps.

The subject of experiment [6] is clinical isolate of P. vulgaris. The experiment is described as above. The format is cell-based. The conditions noted are these: Proteus vulgaris. The procedure: as §5
A further experiment has as its system jack bean urease. Details: method as in PMID 28574649. The following applies: read-out: IC50 against urease; cited from earlier work.
The subject of a further experiment is urease. Further details: method as in PMID 34179623. The following applies: read-out: IC50 against urease; cited from earlier work.

T1 sequence (P07374 whole entry, looked up): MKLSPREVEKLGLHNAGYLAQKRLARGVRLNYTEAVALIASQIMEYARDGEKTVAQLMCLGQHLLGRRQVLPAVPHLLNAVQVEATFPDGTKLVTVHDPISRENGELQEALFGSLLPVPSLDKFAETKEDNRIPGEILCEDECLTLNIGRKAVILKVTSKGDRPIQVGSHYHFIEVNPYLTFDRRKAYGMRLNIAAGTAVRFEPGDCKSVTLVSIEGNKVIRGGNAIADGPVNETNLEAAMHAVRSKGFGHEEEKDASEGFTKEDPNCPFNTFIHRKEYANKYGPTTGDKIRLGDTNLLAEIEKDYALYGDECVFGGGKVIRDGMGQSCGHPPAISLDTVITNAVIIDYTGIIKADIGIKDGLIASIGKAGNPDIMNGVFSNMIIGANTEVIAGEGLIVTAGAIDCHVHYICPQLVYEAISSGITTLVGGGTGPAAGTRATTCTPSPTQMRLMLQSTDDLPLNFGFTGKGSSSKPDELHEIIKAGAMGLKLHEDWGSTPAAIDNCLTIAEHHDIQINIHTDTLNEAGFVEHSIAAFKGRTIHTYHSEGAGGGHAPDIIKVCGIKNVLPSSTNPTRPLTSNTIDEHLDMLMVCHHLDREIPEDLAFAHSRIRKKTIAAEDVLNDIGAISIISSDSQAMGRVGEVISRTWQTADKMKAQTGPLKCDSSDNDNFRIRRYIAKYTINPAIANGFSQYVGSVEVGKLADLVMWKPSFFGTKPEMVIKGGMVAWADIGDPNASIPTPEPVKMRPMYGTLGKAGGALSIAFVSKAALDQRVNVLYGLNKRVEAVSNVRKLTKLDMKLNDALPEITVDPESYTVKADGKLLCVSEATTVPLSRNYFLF

Take `O=C(O)c1cn(C2CC2)c2cc(N3CCN(C(=S)c4ccc([N+](=O)[O-])cc4)CC3)c(F)cc2c1=O` [Compound 3n, 1-Cyclopropyl-6-fluoro-7-(4-(4-nitrophenylcarbonothioyl)piperazin-1-yl)-4-oxo-1,4-dihydroquinoline-3-carboxylic acid]: the results for the IC50 (in experiment [1] (IC50 urease inhibitory activity); with C. neoformans (H99); in experiment [6]) were 2.05 ± 0.03 µM, 5.59 ± 2.38 µg/mL (≈ 11.3 µM) and 5.72 ± 1.31 µg/mL (≈ 11.5 µM), respectively. For the same compound, the MIC in experiment [2] is 0.097 µg/mL (≈ 0.195 µM); in experiment [3], 1.56 µg/mL (≈ 3.15 µM); in [4], 0.781 µg/mL (≈ 1.57 µM); in experiment [5], 0.39 µg/mL (≈ 0.785 µM).

On to `NC(=S)N1N=C(c2cc3ccccc3oc2=O)CC1c1ccccc1` (centres unmarked) [Compound D], for which the IC50 in the experiment with jack bean urease is 0.000358 ± 1.7e-05 µM.

In the case of `NC(N)=S` [Thiourea], the IC50 in experiment [1] (read-out: IC50 urease inhibitory activity) was 23 ± 0.84 µM; in the experiment on jack bean urease, 4.72 ± 0.174 µM; with urease it was 21.7 ± 0.34 µM.
